Here are results for two compounds from US20110183904A1, “METHODS AND COMPOSITIONS FOR ALTERING BEHAVIOR ASSOCIATED WITH AUTISM SPECTRUM DISORDER” (The Children's Mercy Hospital, priority 2008, published 2011).

One assay has as its system Gαs in PBMCs. As to conditions: bipolar illness and schizophrenia; cited from earlier work.
The next assay relates to Gαq mRNA in PBMCs. Put plainly: Gαq mRNA in PBMCs exposed to vasopressin (real-time RT-PCR). In kind it is cell-based, human. As to the method: (§1) Samples were taken from the patients, as described in Example 1, and mRNA was isolated from cells exposed to vasopressin and analyzed for amount of mRNA expressing Gαs and Gαq.
(§2) Venipuncture. 3 ml/kg of blood (to a maximum of 40 cc) were drawn after a 2 hour fast between 10 am and 12 am as previously described (Modahl). EMLA (topical lidocaine cream) was placed on the antecubital region of both arms and covered with tegaderm prior to blood draw. 10 ml of blood was collected in heparinized tubes on ice until processing within 15 minutes. This aliquot was centrifuged at 4° C. at 3000 g for 20 minutes, after which the plasma was stored in 1 ml aliquots at −80° C. until further processing, at which time it was transported on dry ice to the laboratory. The remaining blood (up to 30 cc) was placed on ice and transported within 30 minutes of blood draw to the same lab. PBMC isolation, hormone treatment and cell culture. PBMCs were isolated from heparinized blood using Histopaque 1077 (Sigma-Aldrich, St. Louis, Mo.). Briefly, 5 ml of blood was diluted 1:1 in PBS and carefully layered onto 3 ml of Histopaque 1077 in a 50 ml conical centrifuge tube. Tubes were centrifuged at 400 g for 30 min at RT. The buffy coat was removed from the tube and washed three times in complete RPMI without phenol red. Cell counts and viability were determined using Trypan blue. Cell viability was >95%. Resultant PBMC's were suspended in complete RPMI with 10% charcoal stripped, dilapidated fetal calf serum (FCS) (Invitrogen, Carlsbad, Calif.) and added in 1 ml aliquots to 12 well plate with vehicle and vasopressin (10−8M) in RPMI+10% charcoal stripped, dilapidated FCS. Cells were incubated overnight (18-24 hr) before wells were harvested and rinsed. Cell suspensions were centrifuged at 500 g for 10 min at RT, and supernatant was aspirated. Buffer RLT Plus from the RNeasy Mini Plus Kit (QIAgen, Valencia, Calif.) was added to the cell pellets before vortexing to lyse cells. Samples were stored at −80° C. before RNA purification and isolation.
(§3) RNA isolation and quantitation. Samples were thawed, vortexed, and placed in QIAshredder columns. Columns were centrifuged for 2 min at 15000 g. The homogenized lysate was transferred to a gDNA Eliminator spin column and centrifuged for 30 sec at 9000 g. Equal volumes of 70% ethanol were added to the eluent. The mixture was transferred to RNeasy spin columns and centrifuged for 15 sec at 9000 g. Columns were washed with Buffer RW1 and the Buffer RPE, centrifuging for 15 sec at 9000 g, each time discarding the eluent. Buffer RPE was again added and columns centrifuged for 2 min at 9000 g to dry the column. Columns were then centrifuged for 1 min at 15000 g. RNA was eluted with the addition of Nuclease-free water and spun for 1 min at 9000 g. RNA was examined by spectrophotometry and quantitated using the Ribogreen assay (Invitrogen, Carlsbad, Calif.). Samples were diluted 1:200. Standards of 0, 20, 100, 500, and 1000 ng/ml were made from E. coli ribosomal RNA in TE buffer. Ribogreen reagent (1:200) was added to samples and standards, and samples were read on a Bio-Tek FLx800 fluorescent plate reader. RNA was diluted in nuclease-free water to a final concentration of 150 ng/ml cDNA.
(§4) cDNA construction and one-step real-time RT-PCR. Reverse transcription was performed using the SuperScript II Reverse Transcription Kit (Invitrogen, Carlsbad, Calif.). […]
On the technique in general: Real-time PCR tracks product formation cycle by cycle.

Another assay concerns Gαq protein in PBMCs. Put plainly: Gαq protein expression in PBMCs exposed to vasopressin (immunoblot). Format: cell-based, human. Details: Gαq protein expression, Control Vasopressin / Gαq protein expression, Average, Control Vasopressin: scale not given here. As to the method:
(§5) Membrane preparation for membrane-associated proteins. For protein studies, PBMC's were manipulated at 4° C., as previously described in Example 4. PBMC's were individually homogenized (1:30, wt/vol) in ice-cold 0.25 M sucrose and 50 mM Tris-HCL, (pH 7.6) in a Dounce homogenizer, centrifuged twice at 800×g for 5 min before centrifugation of the supernatants at 30,000×g for 60 min. The pellet was resuspended in assay buffer and used directly in the binding assay. Protein concentration was determined by BCA protein assay kit (Pierce, Rockford, Ill.) using bovine serum albumin (BSA) as a standard.
(§6) Immunoblot analysis for membrane-associated proteins. Total membrane proteins were prepared as for receptor assays above. Samples were electrophoresed in 12% Tris-HCl resolving gels and transferred to 0.45 μm nitrocellulose membranes (Bio-Rad, Hercules, Calif.) by electroblotting. […] After three washes in TBST, membranes were incubated for 1 h in TBST and 1% non fat dry milk with horseradish peroxidase conjugated 2° antibodies (Jackson Immunoresearch, West Grove, Pa.). Bands were visualized by exposure of the membranes to autoradiographic film (MidSci, St. Louis, Mo.). The membranes were then stripped with Restore™ Western Blot Stripping Buffer (Pierce, Rockford Ill.) for 30 min at 37° C. and reprobed for actin protein as an internal control. The bands were quantified using a densitometer (GE Healthcare, Piscataway, N.J.).
(§7) Specific G protein antibodies. Specific Gαs and Gαq/11 antibodies made in rabbit without cross reactivity to other G proteins were used at a 1:500 dilution and originated from Santa Cruz Biotechnology (Santa Cruz, Calif.).
In general terms: In western blotting, separated proteins are transferred to a membrane and probed.

The next assay relates to Gαs mRNA in PBMCs. The assay can be described thus: Gαs mRNA in PBMCs exposed to vasopressin (real-time RT-PCR). In kind it is cell-based, human. Here is the method:
as §1, §2, §3, §4

The subject of the next assay is Gαs protein in PBMCs. The assay can be described thus: Gαs protein expression in PBMCs exposed to vasopressin (immunoblot). In kind it is cell-based, human. As to the method:
as §5, §6, §7

The mark [1] stands for this setting: PBMCs of individual children with ASD, vasopressin 10−8M, 18-24 hr.
[2] abbreviates: PBMCs of individual control children, vasopressin 10−8M, 18-24 hr.
The mark [3] stands for this setting: average of autism group, vasopressin 10−8M.
The mark [4] stands for this setting: average of control group, vasopressin 10−8M.
Setting [5] is: ASD versus without ASD, both exposed to vasopressin.
Where [6] appears, read: PBMCs of individual children with ASD, immunoblot densitometry.
Setting [7] is: PBMCs of individual control children, immunoblot densitometry.

Several values for one entry are separate records, joined by “and”; a condition that tells them apart may be missing. Equal values may be shown once. Entries after “also recorded” stand apart in the source; their conditions may differ.

`O=C(CCCN1CCC(O)(c2ccc(Cl)cc2)CC1)c1ccc(F)cc1` [haldol]: the “Gαs levels in PBMCs under treatment” value with Gαs in PBMCs is given as “decrease”.
Take `NC(=O)CC[C@@H]1NC(=O)[C@H](Cc2ccccc2)NC(=O)[C@H](Cc2ccc(O)cc2)NC(=O)[C@@H](N)CSSC[C@@H](C(=O)N2CCC[C@H]2C(=O)N[C@@H](CCCN=C(N)N)C(=O)NCC(N)=O)NC(=O)[C@H](CC(N)=O)NC1=O` [Vasopressin, Arginine vasopressin]: the “Gαq mRNA (% of control), Autism Vasopressin” value in the assay with Gαq mRNA in PBMCs (setting [1]) was 7.45 % of control and 48.7 % of control and 96.6 % of control (2×) and 171.8 % of control and 43.6 % of control and 37.48 % of control and 13.87 % of control and 12.07 % of control and 24.1 % of control and 7.99 % of control and 48.3 % of control and 90.1 % of control and 90.18 % of control and 107.8 % of control and 8.62 % of control and 1.94 % of control and 30.78 % of control. The “Gαq mRNA (% of control), Control Vasopressin” value with Gαq mRNA in PBMCs (setting [2]) was 9.17 % of control and 3.36 % of control and 54.5 % of control and 23.7 % of control and 1.04 % of control and 12.94 % of control and 1.11 % of control and 100.5 % of control and 59.8 % of control and 146.7 % of control and 45.1 % of control and 16.42 % of control and 24.87 % of control and 26.4 % of control. The “Gαq mRNA (% of control), Average, Autism Vasopressin” value in the assay with Gαq mRNA in PBMCs (setting [3]) is listed as 52.11 % of control. Further, the “Gαq mRNA (% of control), Average, Control Vasopressin” value in the assay on Gαq mRNA in PBMCs (setting [4]) is recorded as 37.5 % of control. The “change of Gαq mRNA on vasopressin exposure” value in the assay with Gαq mRNA in PBMCs (healthy patients) was “increased”. Also, in the assay with Gαq protein in PBMCs (setting [5]), the “Gαq protein expression after vasopressin exposure, patients with ASD less than patients without ASD” value is listed as “about 28%”. In the assay on Gαq protein in PBMCs (setting [6]), the “Gαq protein expression, Autism Vasopressin” value was 4.17 and 12.58 and 0 (5×) and 9.53 and 0.36 and 1.26 and 4.64 and 4.01 and 0.19 and 1.13. In addition, the “Gαq protein expression, Control Vasopressin” value with Gαq protein in PBMCs (setting [7]) was 7.84 and 0.25 and 0.6 and 0 and 10.56 and 0.26 and 1.86 and 3.96 and 0.35 and 2.86 and 2.81 and 13.29. For the same compound, the “Gαq protein expression, Average, Autism Vasopressin” value in the assay with Gαq protein in PBMCs (average of autism group) is reported as 2.71. Moreover, in the assay on Gαq protein in PBMCs (average of control group), the “Gαq protein expression, Average, Control Vasopressin” value was found to be 3.72. For the same compound, the entries for the “change of Gαq protein expression on vasopressin exposure” value in the assay with Gαq protein in PBMCs (patients with ASD) and with Gαq protein in PBMCs (patients without ASD) were “down-regulation trend; also recorded: decreased” and “appeared to be higher; also recorded: up-regulating”, respectively. Besides, the “Gαs mRNA (% of control), Autism Vasopressin” value in the assay on Gαs mRNA in PBMCs (setting [1]) is 59.5 % of control and 151.6 % of control and 373.2 % of control and 65.9 % of control and 181.8 % of control and 66.3 % of control and 52.6 % of control and 77 % of control and 62 % of control and 54 % of control and 21.1 % of control and 114.8 % of control and 144.4 % of control and 67.6 % of control and 99.7 % of control and 147.3 % of control and 78.5 % of control and 43.7 % of control and 214.4 % of control. The “Gαs mRNA (% of control), Control Vasopressin” value with Gαs mRNA in PBMCs (setting [2]) is 200 % of control and 245.8 % of control and 137.6 % of control and 66.3 % of control and 42.7 % of control and 58.3 % of control and 120 % of control and 31.9 % of control and 33.1 % of control and 66.1 % of control and 30.8 % of control. Also, the “Gαs mRNA (% of control), Average, Autism Vasopressin” value in the assay with Gαs mRNA in PBMCs (setting [3]) was 109.1 % of control. Also, the “Gαs mRNA (% of control), Average, Control Vasopressin” value in the assay on Gαs mRNA in PBMCs (setting [4]) is 93.9 % of control. For the same compound, in the assay on Gαs mRNA in PBMCs (healthy patients), the “change of Gαs mRNA on vasopressin exposure” value is “increased”. In the assay on Gαs protein in PBMCs (setting [5]), the “Gαs protein expression after vasopressin exposure, patients with ASD lower than patients without ASD” value is “about 37%”. In the assay on Gαs protein in PBMCs (setting [6]), the “Gαs protein expression, Autism Vasopressin” value was 0.16 and 0.03 (2×) and 0.04 and 0.01 and 0.14 and 0 and 0.33 (2×) and 0.69 and 0.83 and 0.86 and 0.52 and 0.7. In addition, the “Gαs protein expression, Control Vasopressin” value in the assay on Gαs protein in PBMCs (setting [7]) is 0.3 and 0.83 and 0.35 and 1.63 and 0.33 and 0.19 and 0.48 and 0.29 and 1.26 and 0.51 and 0.62 and 0.67. For the same compound, the “Gαs protein expression, Average, Autism Vasopressin” value with Gαs protein in PBMCs (average of autism group) is “.33”. For the same compound, in the assay on Gαs protein in PBMCs (average of control group), the “Gαs protein expression, Average, Control Vasopressin” value is on record as “.54”. For the same compound, the “change of Gαs protein expression on vasopressin exposure” value in the assay with Gαs protein in PBMCs (patients with ASD) is reported as “down-regulation trend; also recorded: decreased”; in the assay with Gαs protein in PBMCs (patients without ASD), “appeared to be higher; also recorded: up-regulating”.
